Compound in experiment [1]: CCC1=C[C@@H]2CN(C1)Cc1c([nH]c3ccccc13)[C@@](C(=O)OC)(c1cc3c(cc1OC)N(C)[C@H]1[C@@](O)(C(=O)OC)[C@H](OC(C)=O)[C@]4(CC)C=CCN5CC[C@]31[C@@H]54)C2 [VINORELBINE]
Put plainly: surviving fraction relative to DMSO-only wells; higher = less growth inhibition. The settings on record: exposure time: 5 days. Summed up:
(§1)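 At 250–500 cells per well in 384-well plates, log-phase tumour cell lines were seeded and, 24 hours on, exposed continuously for five days to inhibitors at 0.5, 1, 5, 10, 50, 100, 500 and 1000 nM. Viability readout was CellTiter-Glo luminescence, reported as surviving fraction normalised to the median of DMSO-only wells.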

Compound in experiment [2]: COc1cc(CCc2cc(NC(=O)c3ccc(N4CC(C)NC(C)C4)cc3)n[nH]2)cc(OC)c1 [AZD4547]
The experiment is described as above. The conditions noted are these: exposure time: 5 days. Summed up: as §1

± gives the standard deviation of the averaged measurements.

C33A CERVIX: the surviving fraction turned out to be 1.02 ± 0.15 in experiment [1] (0.5 nM); 1.02 ± 0.1 in experiment [1] (1 nM); 1.03 ± 0.11 in experiment [1] (5 nM); 0.78 ± 0.04 in experiment [1] (10 nM); 0.121 ± 0.0098 in experiment [1] (50 nM); 0.102 ± 0.028 in experiment [1] (100 nM). Moreover, the surviving fraction in experiment [1] (500 nM) is 0.0543 ± 0.026; in experiment [1] (1000 nM), 0.0423 ± 0.0078; in experiment [2] (0.5 nM), 0.847 ± 0.084; in experiment [2] (1 nM) it was 0.948 ± 0.074; in experiment [2] (5 nM), 0.96 ± 0.027; in experiment [2] (10 nM), 0.969 ± 0.099. Also, the surviving fraction in experiment [2] (50 nM) is 0.915 ± 0.015; in experiment [2] (100 nM), 0.953 ± 0.1; in experiment [2] (500 nM), 0.811 ± 0.024; in experiment [2] (1000 nM) it was 0.75 ± 0.086.
Take CAL72 BONE: the surviving fraction in experiment [1] (0.5 nM) worked out at 1.04 ± 0.036; in experiment [1] (1 nM) it was 1.05 ± 0.036; in experiment [1] (5 nM), 1 ± 0.024; in experiment [1] (10 nM) it was 0.9417 ± 0.0083; in experiment [1] (50 nM), 0.43 ± 0.056; in experiment [1] (100 nM), 0.34 ± 0.05. The surviving fraction stood at 0.213 ± 0.018 in experiment [1] (500 nM); 0.213 ± 0.026 in experiment [1] (1000 nM); 1.08 ± 0.022 in experiment [2] (0.5 nM); 1.096 ± 0.0035 in experiment [2] (1 nM); 1.05 ± 0.043 in experiment [2] (5 nM); 0.791 ± 0.067 in experiment [2] (10 nM). The surviving fraction in experiment [2] (50 nM) was determined as 0.331 ± 0.028; in experiment [2] (100 nM), 0.257 ± 0.013; in experiment [2] (500 nM), 0.19 ± 0.031; in experiment [2] (1000 nM), 0.158 ± 0.026.
For the test system G292 BONE, the surviving fraction was determined as 0.962 ± 0.012 in experiment [1] (0.5 nM); 1.01 ± 0.045 in experiment [1] (1 nM); 0.704 ± 0.0075 in experiment [1] (5 nM); 0.416 ± 0.013 in experiment [1] (10 nM); 0.221 ± 0.02 in experiment [1] (50 nM); 0.189 ± 0.0081 in experiment [1] (100 nM). Also, the surviving fraction came to 0.144 ± 0.013 in experiment [1] (500 nM); 0.105 ± 0.011 in experiment [1] (1000 nM); 0.93 ± 0.062 in experiment [2] (0.5 nM); 0.917 ± 0.035 in experiment [2] (1 nM); 0.801 ± 0.018 in experiment [2] (5 nM); 0.566 ± 0.0083 in experiment [2] (10 nM). Further, the surviving fraction turned out to be 0.207 ± 0.0036 in experiment [2] (50 nM), 0.173 ± 0.011 in experiment [2] (100 nM), 0.138 ± 0.021 in experiment [2] (500 nM) and 0.107 ± 0.0059 in experiment [2] (1000 nM).
Turning to HCC1395 BREAST, the surviving fraction in experiment [1] (0.5 nM) is 1.04 ± 0.21; in experiment [1] (1 nM), 1.09 ± 0.16; in experiment [1] (5 nM), 1.13 ± 0.077; in experiment [1] (10 nM), 1.11 ± 0.031; in experiment [1] (50 nM), 0.952 ± 0.083; in experiment [1] (100 nM), 0.727 ± 0.12. For the same test system, the surviving fraction worked out at 0.575 ± 0.16 in experiment [1] (500 nM); 0.467 ± 0.057 in experiment [1] (1000 nM); 0.849 ± 0.077 in experiment [2] (0.5 nM); 0.904 ± 0.088 in experiment [2] (1 nM); 0.849 ± 0.07 in experiment [2] (5 nM); 0.748 ± 0.11 in experiment [2] (10 nM). For the same test system, the surviving fraction in experiment [2] (50 nM) was determined as 0.79 ± 0.072; in experiment [2] (100 nM), 0.804 ± 0.1; in experiment [2] (500 nM), 0.698 ± 0.06; in experiment [2] (1000 nM) it was 0.762 ± 0.19.
With HUO3N1 BONE, the surviving fraction in experiment [1] (0.5 nM) amounted to 1.01 ± 0.032; in experiment [1] (1 nM), 1.02 ± 0.012; in experiment [1] (5 nM), 1.03 ± 0.039; in experiment [1] (10 nM), 0.935 ± 0.017; in experiment [1] (50 nM), 0.308 ± 0.039; in experiment [1] (100 nM), 0.182 ± 0.025. For the same test system, the surviving fraction was 0.183 ± 0.0055 in experiment [1] (500 nM); 0.179 ± 0.018 in experiment [1] (1000 nM); 1.01 ± 0.05 in experiment [2] (0.5 nM); 0.976 ± 0.015 in experiment [2] (1 nM); 1.05 ± 0.059 in experiment [2] (5 nM); 0.95 ± 0.072 in experiment [2] (10 nM). The surviving fraction in experiment [2] (50 nM) came to 0.85 ± 0.022; in experiment [2] (100 nM), 0.816 ± 0.018; in experiment [2] (500 nM), 0.693 ± 0.04; in experiment [2] (1000 nM), 0.608 ± 0.018.
In the case of LNCAP PROSTATE, the surviving fraction turned out to be 0.816 ± 0.12 in experiment [1] (0.5 nM); 0.843 ± 0.12 in experiment [1] (1 nM); 0.667 ± 0.038 in experiment [1] (5 nM); 0.458 ± 0.056 in experiment [1] (10 nM); 0.06 ± 0.0053 in experiment [1] (50 nM); 0.054 ± 0.0044 in experiment [1] (100 nM). The surviving fraction in experiment [1] (500 nM) was found to be 0.058 ± 0.001; in experiment [1] (1000 nM), 0.0507 ± 0.0083; in experiment [2] (0.5 nM), 0.881 ± 0.092; in experiment [2] (1 nM) it was 0.995 ± 0.12; in experiment [2] (5 nM), 0.861 ± 0.036; in experiment [2] (10 nM), 0.829 ± 0.043. Besides, the surviving fraction in experiment [2] (50 nM) amounted to 0.821 ± 0.13; in experiment [2] (100 nM) it was 0.903 ± 0.037; in experiment [2] (500 nM), 0.752 ± 0.11; in experiment [2] (1000 nM) it was 0.857 ± 0.25.
Turning to SCC003 HEADNECK, the surviving fraction in experiment [1] (0.5 nM) was found to be 1.02 ± 0.16; in experiment [1] (1 nM) it was 1.08 ± 0.067; in experiment [1] (5 nM) it was 0.967 ± 0.13; in experiment [1] (10 nM), 0.862 ± 0.064; in experiment [1] (50 nM), 0.271 ± 0.039; in experiment [1] (100 nM), 0.256 ± 0.02. For the same test system, the surviving fraction was 0.34 ± 0.045 in experiment [1] (500 nM); 0.311 ± 0.036 in experiment [1] (1000 nM); 1.05 ± 0.091 in experiment [2] (0.5 nM); 1.03 ± 0.014 in experiment [2] (1 nM); 1.13 ± 0.06 in experiment [2] (5 nM); 1.1 ± 0.083 in experiment [2] (10 nM). The surviving fraction in experiment [2] (50 nM) worked out at 1.07 ± 0.021; in experiment [2] (100 nM), 1.1 ± 0.065; in experiment [2] (500 nM), 1.02 ± 0.088; in experiment [2] (1000 nM), 0.996 ± 0.071.
